{"source": "paper PMC3382171", "about": "(PLoS ONE, 2012)", "test_in_all_cases": "biochemical", "key": {"[1]": {"biological_target": "T1, IR (Homo sapiens, UniProt P06213)", "T1 construct": "gene INSR", "details": "read-out: Upstate KSS % inhibition at 1uM", "protocol": "(§1) In these selectivity assays the concentration of ATP was set to the Km value of ATP for each kinase tested to allow for a relative potency comparison between the various kinases. The compounds were tested at 1 µM final concentration. […] (A) Kinase selectivity screen (KSS) performed at Upstate Biotechnology. […] (B) KSS performed at University of Dundee (Division of Signal Transduction Therapy). […] (PDF) Click here for additional data file."}, "[2]": {"biological_target": "T2, PKBbeta (Homo sapiens, UniProt P31751)", "T2 construct": "gene AKT2", "details": "read-out: Upstate KSS % inhibition at 1uM", "protocol": "as §1"}, "[3]": {"biological_target": "CSK (Homo sapiens, UniProt P41240)", "details": "read-out: Upstate KSS % inhibition at 1uM", "protocol": "as §1"}, "[4]": {"biological_target": "EPHB2 (Homo sapiens, UniProt P29323)", "details": "read-out: Upstate KSS % inhibition at 1uM", "protocol": "as §1"}, "[5]": {"biological_target": "T3, PKCalpha (Homo sapiens, UniProt P17252)", "T3 construct": "gene PRKCA", "details": "read-out: Upstate KSS % inhibition at 1uM", "protocol": "as §1"}, "[6]": {"biological_target": "T4, JNK1alpha1 (Homo sapiens, UniProt P45983)", "T4 construct": "gene MAPK8; isoform alpha1", "T4 sequence (P45983 whole entry, canonical isoform)": "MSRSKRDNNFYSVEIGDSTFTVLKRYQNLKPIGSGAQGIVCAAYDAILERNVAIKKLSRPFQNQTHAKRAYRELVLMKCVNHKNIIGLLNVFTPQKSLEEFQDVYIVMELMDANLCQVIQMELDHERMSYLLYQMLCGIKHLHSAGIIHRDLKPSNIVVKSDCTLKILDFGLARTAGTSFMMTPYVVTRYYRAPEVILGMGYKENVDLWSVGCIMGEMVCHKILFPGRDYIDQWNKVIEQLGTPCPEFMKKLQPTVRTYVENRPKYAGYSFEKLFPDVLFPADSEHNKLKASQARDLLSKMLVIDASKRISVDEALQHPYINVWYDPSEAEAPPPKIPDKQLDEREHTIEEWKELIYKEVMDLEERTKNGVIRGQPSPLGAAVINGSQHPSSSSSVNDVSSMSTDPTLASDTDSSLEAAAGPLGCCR", "details": "read-out: Upstate KSS % inhibition at 1uM", "protocol": "as §1"}, "[7]": {"biological_target": "T5, Aurora-A (Homo sapiens, UniProt O14965)", "T5 construct": "gene AURKA", "details": "read-out: Upstate KSS % inhibition at 1uM", "protocol": "as §1"}, "[8]": {"biological_target": "T6, mouse MKK4 (Mus musculus, UniProt P47809)", "T6 construct": "gene Map2k4", "details": "read-out: Upstate KSS % inhibition at 1uM", "protocol": "as §1"}, "[9]": {"biological_target": "CDK7/cyclinH (Homo sapiens, UniProt P50613)", "details": "read-out: Upstate KSS % inhibition at 1uM", "protocol": "as §1"}, "[10]": {"biological_target": "TSSK2 (Homo sapiens, UniProt Q96PF2)", "sequence (Q96PF2 whole entry)": "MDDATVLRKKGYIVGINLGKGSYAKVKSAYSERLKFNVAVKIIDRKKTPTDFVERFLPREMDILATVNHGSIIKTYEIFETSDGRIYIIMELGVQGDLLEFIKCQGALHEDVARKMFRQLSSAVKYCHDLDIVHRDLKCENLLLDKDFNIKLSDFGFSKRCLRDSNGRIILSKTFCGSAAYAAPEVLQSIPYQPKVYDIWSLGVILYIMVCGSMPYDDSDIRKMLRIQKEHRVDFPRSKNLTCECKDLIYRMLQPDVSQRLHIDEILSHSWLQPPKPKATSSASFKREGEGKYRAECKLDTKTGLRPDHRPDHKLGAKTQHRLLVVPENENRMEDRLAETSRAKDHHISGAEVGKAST", "details": "read-out: Upstate KSS % inhibition at 1uM", "protocol": "as §1"}, "[11]": {"biological_target": "JAK2 (Homo sapiens, UniProt O60674)", "details": "read-out: Upstate KSS % inhibition at 1uM", "protocol": "as §1"}, "[12]": {"biological_target": "T7, MKK6 (Homo sapiens, UniProt P52564)", "T7 construct": "gene MAP2K6", "T7 sequence (P52564 whole entry)": "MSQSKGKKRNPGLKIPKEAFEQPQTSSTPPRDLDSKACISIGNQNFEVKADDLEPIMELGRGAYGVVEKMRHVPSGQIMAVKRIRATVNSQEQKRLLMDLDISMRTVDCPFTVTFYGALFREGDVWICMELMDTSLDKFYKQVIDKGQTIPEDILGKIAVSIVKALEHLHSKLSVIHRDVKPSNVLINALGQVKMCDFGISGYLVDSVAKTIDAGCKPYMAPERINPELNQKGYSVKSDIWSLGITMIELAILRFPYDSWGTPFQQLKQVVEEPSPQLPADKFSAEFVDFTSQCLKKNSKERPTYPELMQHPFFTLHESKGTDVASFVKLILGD", "details": "read-out: Upstate KSS % inhibition at 1uM", "protocol": "as §1"}, "[13]": {"biological_target": "Fes (Homo sapiens, UniProt P07332)", "sequence (P07332 whole entry)": "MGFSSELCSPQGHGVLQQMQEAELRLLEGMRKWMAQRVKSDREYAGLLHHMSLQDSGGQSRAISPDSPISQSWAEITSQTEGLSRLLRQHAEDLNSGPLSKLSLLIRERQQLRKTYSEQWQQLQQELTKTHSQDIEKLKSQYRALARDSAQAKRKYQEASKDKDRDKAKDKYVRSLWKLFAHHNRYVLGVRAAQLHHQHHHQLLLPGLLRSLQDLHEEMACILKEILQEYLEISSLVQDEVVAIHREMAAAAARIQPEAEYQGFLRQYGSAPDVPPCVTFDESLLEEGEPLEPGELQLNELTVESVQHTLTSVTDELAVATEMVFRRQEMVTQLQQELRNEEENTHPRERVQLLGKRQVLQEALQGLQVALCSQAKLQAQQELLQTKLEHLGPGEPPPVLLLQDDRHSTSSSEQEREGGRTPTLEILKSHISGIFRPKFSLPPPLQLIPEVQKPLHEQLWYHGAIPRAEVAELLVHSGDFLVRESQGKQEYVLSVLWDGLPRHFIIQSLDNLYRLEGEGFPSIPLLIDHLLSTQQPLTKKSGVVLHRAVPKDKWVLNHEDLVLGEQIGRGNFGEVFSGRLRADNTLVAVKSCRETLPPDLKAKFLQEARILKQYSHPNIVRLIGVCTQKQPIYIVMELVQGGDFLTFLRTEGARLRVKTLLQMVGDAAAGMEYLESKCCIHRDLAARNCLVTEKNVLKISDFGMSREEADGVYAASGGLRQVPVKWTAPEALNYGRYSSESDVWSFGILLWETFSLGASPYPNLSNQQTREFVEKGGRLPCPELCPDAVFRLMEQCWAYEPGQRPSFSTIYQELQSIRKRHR", "details": "read-out: Upstate KSS % inhibition at 1uM", "protocol": "as §1"}, "[14]": {"biological_target": "T8, PKCiota (Homo sapiens, UniProt P41743)", "T8 construct": "gene PRKCI", "details": "read-out: Upstate KSS % inhibition at 1uM", "protocol": "as §1"}, "[15]": {"biological_target": "T9, PDGFRbeta (Homo sapiens, UniProt P09619)", "T9 construct": "gene PDGFRB", "details": "read-out: Upstate KSS % inhibition at 1uM", "protocol": "as §1"}, "[16]": {"biological_target": "T10, PAR-1Balpha (Homo sapiens, UniProt Q7KZI7)", "T10 construct": "gene MARK2", "details": "read-out: Upstate KSS % inhibition at 1uM", "protocol": "as §1"}, "[17]": {"biological_target": "PTK2 (FAK) (Homo sapiens, UniProt Q05397)", "sequence (Q05397 whole entry)": "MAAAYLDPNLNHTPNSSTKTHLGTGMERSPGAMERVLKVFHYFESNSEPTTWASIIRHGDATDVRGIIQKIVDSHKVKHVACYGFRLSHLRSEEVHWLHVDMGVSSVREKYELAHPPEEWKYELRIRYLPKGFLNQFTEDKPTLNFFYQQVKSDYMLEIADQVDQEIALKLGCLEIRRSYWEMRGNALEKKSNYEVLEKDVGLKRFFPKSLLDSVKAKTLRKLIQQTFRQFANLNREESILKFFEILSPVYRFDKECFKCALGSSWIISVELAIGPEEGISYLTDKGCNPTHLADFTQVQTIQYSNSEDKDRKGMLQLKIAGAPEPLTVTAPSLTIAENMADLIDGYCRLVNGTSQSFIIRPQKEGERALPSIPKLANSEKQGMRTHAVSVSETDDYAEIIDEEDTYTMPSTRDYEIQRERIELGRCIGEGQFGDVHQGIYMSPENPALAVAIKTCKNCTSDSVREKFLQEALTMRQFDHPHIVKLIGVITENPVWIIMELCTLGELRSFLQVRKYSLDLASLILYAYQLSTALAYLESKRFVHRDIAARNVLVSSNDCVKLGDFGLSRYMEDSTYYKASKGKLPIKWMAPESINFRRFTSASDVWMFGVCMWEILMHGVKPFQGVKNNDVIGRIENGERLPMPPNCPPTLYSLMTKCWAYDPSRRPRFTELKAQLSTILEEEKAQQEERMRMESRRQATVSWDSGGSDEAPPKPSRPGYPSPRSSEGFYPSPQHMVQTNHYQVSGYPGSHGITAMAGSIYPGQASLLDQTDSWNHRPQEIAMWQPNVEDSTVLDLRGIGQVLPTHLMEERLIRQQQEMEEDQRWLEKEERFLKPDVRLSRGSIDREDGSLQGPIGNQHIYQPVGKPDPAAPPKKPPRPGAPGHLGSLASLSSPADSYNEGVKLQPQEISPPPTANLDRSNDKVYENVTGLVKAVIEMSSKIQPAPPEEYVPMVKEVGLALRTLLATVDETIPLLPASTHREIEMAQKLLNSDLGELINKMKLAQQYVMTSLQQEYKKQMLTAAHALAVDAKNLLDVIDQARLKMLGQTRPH", "parameters": "Invitrogen SelectScreen kinase panel, percent inhibition at 1 uM, ATP at Km", "details": "read-out: Invitrogen KSS %Inh at 1 µM", "protocol": "(§2) The METi and RAFi were screened against kinase panels (SelectScreen, Invitrogen; University of Dundee, Division of Signal Transduction Therapy, UK; Upstate Biotechnology/Millipore, Billerica, MA). In these selectivity assays the concentration of ATP was set to the Km value of ATP for each kinase tested to allow for a relative potency comparison between the various kinases. The compounds were tested at 1 µM final concentration. […] Supplementary file pone.0039653.s002.pdf: Figure S2 Kinase Selectivity Screen of RAFi. (A) Kinase selectivity screen (KSS) performed at University of Dundee (Division of Signal Transduction Therapy). Values in % inhibition of phosphorylation given 1 µM of RAFi compared to control. (B) KSS performed at Invitrogen (Selectscreen Service) compared to control. Values in % inhibition of phosphorylation given 1 µM of RAFi. (C) Cell based dose response kinase inhibition of indicated kinases by RAFi. (PDF) Click here for additional data file."}, "[18]": {"biological_target": "MAP2K6 (MKK6) (Homo sapiens, UniProt P52564)", "sequence (P52564 whole entry)": "as the sequence (P52564 whole entry) above", "parameters": "Invitrogen SelectScreen kinase panel, percent inhibition at 1 uM, ATP at Km", "details": "read-out: Invitrogen KSS %Inh at 1 µM", "protocol": "as §2"}, "[19]": {"biological_target": "PRKCQ (PKC theta) (Homo sapiens, UniProt Q04759)", "sequence (Q04759 whole entry)": "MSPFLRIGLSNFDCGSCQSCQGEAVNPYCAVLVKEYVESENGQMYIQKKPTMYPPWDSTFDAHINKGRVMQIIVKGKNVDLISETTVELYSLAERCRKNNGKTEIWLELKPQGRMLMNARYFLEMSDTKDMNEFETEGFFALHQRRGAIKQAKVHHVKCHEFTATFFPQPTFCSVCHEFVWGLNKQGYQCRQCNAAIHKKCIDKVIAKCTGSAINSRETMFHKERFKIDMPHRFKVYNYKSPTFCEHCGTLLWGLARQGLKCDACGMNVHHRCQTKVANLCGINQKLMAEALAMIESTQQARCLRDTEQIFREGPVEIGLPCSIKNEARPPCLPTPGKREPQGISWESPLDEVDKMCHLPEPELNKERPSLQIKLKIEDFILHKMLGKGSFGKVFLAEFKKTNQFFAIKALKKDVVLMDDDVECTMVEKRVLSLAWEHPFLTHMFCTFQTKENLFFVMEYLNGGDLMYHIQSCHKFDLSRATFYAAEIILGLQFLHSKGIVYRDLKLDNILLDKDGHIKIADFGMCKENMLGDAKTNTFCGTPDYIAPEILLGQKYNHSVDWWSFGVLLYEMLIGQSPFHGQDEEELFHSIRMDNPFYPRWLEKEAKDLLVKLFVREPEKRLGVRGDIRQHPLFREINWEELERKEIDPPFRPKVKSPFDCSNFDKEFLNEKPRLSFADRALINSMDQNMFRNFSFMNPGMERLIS", "parameters": "Invitrogen SelectScreen kinase panel, percent inhibition at 1 uM, ATP at Km", "details": "read-out: Invitrogen KSS %Inh at 1 µM", "protocol": "as §2"}, "[20]": {"biological_target": "ROCK1 (Homo sapiens, UniProt Q13464)", "parameters": "Invitrogen SelectScreen kinase panel, percent inhibition at 1 uM, ATP at Km", "details": "read-out: Invitrogen KSS %Inh at 1 µM", "protocol": "as §2"}, "[21]": {"biological_target": "MARK2 (Homo sapiens, UniProt Q7KZI7)", "parameters": "Invitrogen SelectScreen kinase panel, percent inhibition at 1 uM, ATP at Km", "details": "read-out: Invitrogen KSS %Inh at 1 µM", "protocol": "as §2"}, "[22]": {"biological_target": "CAMK4 (CaMKIV) (Homo sapiens, UniProt Q16566)", "sequence (Q16566 whole entry)": "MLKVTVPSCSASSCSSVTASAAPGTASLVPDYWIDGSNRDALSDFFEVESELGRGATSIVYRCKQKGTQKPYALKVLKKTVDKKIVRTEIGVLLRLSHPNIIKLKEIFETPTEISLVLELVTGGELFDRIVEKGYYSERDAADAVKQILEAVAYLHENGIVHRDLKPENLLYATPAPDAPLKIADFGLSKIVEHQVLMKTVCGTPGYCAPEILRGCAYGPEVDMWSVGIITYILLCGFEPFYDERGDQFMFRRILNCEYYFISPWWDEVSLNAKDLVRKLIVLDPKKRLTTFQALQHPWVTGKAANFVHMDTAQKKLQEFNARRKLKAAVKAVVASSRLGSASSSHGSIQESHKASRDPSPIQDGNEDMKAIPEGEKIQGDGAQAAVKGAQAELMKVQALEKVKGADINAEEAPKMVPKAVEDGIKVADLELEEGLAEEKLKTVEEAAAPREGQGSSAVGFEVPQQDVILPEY", "parameters": "Invitrogen SelectScreen kinase panel, percent inhibition at 1 uM, ATP at Km", "details": "read-out: Invitrogen KSS %Inh at 1 µM", "protocol": "as §2"}, "[23]": {"biological_target": "RPS6KA4 (MSK2) (Homo sapiens, UniProt O75676)", "parameters": "Invitrogen SelectScreen kinase panel, percent inhibition at 1 uM, ATP at Km", "details": "read-out: Invitrogen KSS %Inh at 1 µM", "protocol": "as §2"}, "[24]": {"biological_target": "MAP4K2 (GCK) (Homo sapiens, UniProt Q12851)", "parameters": "Invitrogen SelectScreen kinase panel, percent inhibition at 1 uM, ATP at Km", "details": "read-out: Invitrogen KSS %Inh at 1 µM", "protocol": "as §2"}, "[25]": {"biological_target": "PRKACA (PKA) (Homo sapiens, UniProt P17612)", "parameters": "Invitrogen SelectScreen kinase panel, percent inhibition at 1 uM, ATP at Km", "details": "read-out: Invitrogen KSS %Inh at 1 µM", "protocol": "as §2"}}, "data": [{"molecule": "OCCn1cc(-c2cnc3nnn(Cc4ccc5ncccc5c4)c3n2)cn1", "note": "[METi, PF-04217903]", "values": [{"measurement": "inhibition at 1 µM", "setting": "[1]", "result": 8, "unit": "%"}, {"measurement": "inhibition at 1 µM", "setting": "[2]", "result": -6, "unit": "%"}, {"measurement": "inhibition at 1 µM", "setting": "[3]", "result": -23, "unit": "%"}, {"measurement": "inhibition at 1 µM", "setting": "[4]", "result": 53, "unit": "%"}, {"measurement": "inhibition at 1 µM", "setting": "[5]", "result": -7, "unit": "%"}, {"measurement": "inhibition at 1 µM", "setting": "[6]", "result": 0, "unit": "%"}, {"measurement": "inhibition at 1 µM", "setting": "[7]", "result": -7, "unit": "%"}, {"measurement": "inhibition at 1 µM", "setting": "[8]", "result": -2, "unit": "%"}, {"measurement": "inhibition at 1 µM", "setting": "[9]", "result": -14, "unit": "%"}, {"measurement": "inhibition at 1 µM", "setting": "[10]", "result": 4, "unit": "%"}, {"measurement": "inhibition at 1 µM", "setting": "[11]", "result": -6, "unit": "%"}, {"measurement": "inhibition at 1 µM", "setting": "[12]", "result": -13, "unit": "%"}, {"measurement": "inhibition at 1 µM", "setting": "[13]", "result": -61, "unit": "%"}, {"measurement": "inhibition at 1 µM", "setting": "[14]", "result": 0, "unit": "%"}, {"measurement": "inhibition at 1 µM", "setting": "[15]", "result": -27, "unit": "%"}, {"measurement": "inhibition at 1 µM", "setting": "[16]", "result": 17, "unit": "%"}]}, {"molecule": "N#CCCNc1nccc(-c2cn(CC(F)F)nc2-c2cnc3[nH]ccc3c2)n1", "note": "[RAFi, PF-04880594]", "values": [{"measurement": "inhibition at 1 µM", "setting": "[17]", "result": 12, "unit": "%"}, {"measurement": "inhibition at 1 µM", "setting": "[18]", "result": 12, "unit": "%"}, {"measurement": "inhibition at 1 µM", "setting": "[19]", "result": -2, "unit": "%"}, {"measurement": "inhibition at 1 µM", "setting": "[20]", "result": 4, "unit": "%"}, {"measurement": "inhibition at 1 µM", "setting": "[21]", "result": 9, "unit": "%"}, {"measurement": "inhibition at 1 µM", "setting": "[22]", "result": -5, "unit": "%"}, {"measurement": "inhibition at 1 µM", "setting": "[23]", "result": 5, "unit": "%"}, {"measurement": "inhibition at 1 µM", "setting": "[24]", "result": -12, "unit": "%"}, {"measurement": "inhibition at 1 µM", "setting": "[25]", "result": -1, "unit": "%"}]}]}
